The values that follow come from BindingDB's records for doi:10.1021/cb900134c (Saic-Frederick, 2009).

pIC50: −log10 of the molar value.

The target in the experiment is T1, Broad substrate specificity ATP-binding cassette transporter ABCG2 (Homo sapiens, UniProt Q9UNQ0).
T1 sequence (Q9UNQ0 whole entry): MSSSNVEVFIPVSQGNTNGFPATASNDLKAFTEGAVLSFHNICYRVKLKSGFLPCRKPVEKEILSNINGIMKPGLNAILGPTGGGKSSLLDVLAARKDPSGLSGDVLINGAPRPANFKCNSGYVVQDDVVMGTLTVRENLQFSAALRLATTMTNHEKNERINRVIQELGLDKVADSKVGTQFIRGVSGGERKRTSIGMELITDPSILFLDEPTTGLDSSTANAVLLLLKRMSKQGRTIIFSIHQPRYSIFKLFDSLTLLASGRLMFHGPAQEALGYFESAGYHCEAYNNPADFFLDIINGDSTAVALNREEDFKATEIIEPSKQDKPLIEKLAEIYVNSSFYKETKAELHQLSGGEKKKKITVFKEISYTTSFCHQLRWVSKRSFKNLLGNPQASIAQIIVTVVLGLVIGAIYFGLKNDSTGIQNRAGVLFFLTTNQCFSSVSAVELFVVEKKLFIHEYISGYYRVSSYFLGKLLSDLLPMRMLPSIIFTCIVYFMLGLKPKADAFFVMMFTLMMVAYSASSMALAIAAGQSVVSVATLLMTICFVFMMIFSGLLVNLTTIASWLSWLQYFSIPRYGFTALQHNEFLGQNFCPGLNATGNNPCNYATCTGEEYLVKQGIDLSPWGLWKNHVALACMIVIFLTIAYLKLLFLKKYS
Description: Screening Assay for ABCG2 Inhibitors. The conditions noted are these: pH 7.4; 37 °C. The protocol:
IC50 and maximal activities for inhibition of PhA accumulation were determined from dose-response curves. The accumulation of PhA, a fluorescent ABCG2 substrate, formed the basis of the assay for inhibitors of ABCG2 activity. NCI-H460/MX20 cells were transferred to black-walled, clear-bottomed 384-well polylysine-coated assay plates (Corning) and allowed to attach for several hours. PhA was added, immediately followed by compounds or vehicle (DMSO/PBS) control and incubated for an additional 18 h. After removal of medium and washing with PBS containing Ca2+ and Mg2+, fluorescence intensity was read on a Tecan Safire fluorescence plate reader in bottom read mode (395 nm excitation, 670 nm emission). Each plate had control wells containing Fumitremorgin C (FTC). Data were normalized to FTC and reported as the percentage of FTC fluorescence. Apparent IC50 values were calculated from dose-response data using SigmaPlot (SPSS, Inc., Chicago) 4-parameter logistic nonlinear regression analysis.
By pIC50 is commonly meant the negative decadic logarithm of the IC50, by convention in mol/L. `COc1ccc2c3c([nH]c2c1)[C@H](C=C(C)C)N1C(=O)[C@@H]2CCCN2C(=O)[C@@H]1C3` [Fumitremorgin C] showed a pIC50 of 6.10. With `CO/C(=C\c1ccc(O)cc1)C(=O)N/C=C/c1cc(Br)c(O)c(Br)c1` [US8470888, Botryllamide G] the figure was 5.16. Turning to `CO/C(=C\c1ccc(O)cc1)C(=O)N/C=C/c1cc(Br)c(OC)c(Br)c1` [US8470888, Botryllamide A], the pIC50 is 4.48.

The molecule `CO/C(=C/c1ccc(O)cc1)C(=O)N/C=C/c1cc(Br)c(OC)c(Br)c1` [Botryllamide B, 2] gave a pIC50 of 4.95. As for `CO/C(=C/c1ccc(O)cc1)C(=O)N/C=C/c1ccc(OC)cc1` [Botryllamide I, 9], the figure is 4.38; as for `CO/C(=C\c1ccc(O)cc1)C(=O)N/C=C/c1ccc(O)cc1` [US8470888, Botryllamide F], 4.78; as for `CO/C(=C/c1ccc(O)cc1)C(=O)N/C=C/c1ccc(OC)c(Br)c1` [Botryllamide D, 4], 4.79. With `CO/C(=C\c1ccc(O)cc1)C(=O)N/C=C/c1ccc(OC)cc1` [US8470888, Botryllamide I] the figure was 4.63.
